Among the test systems are RXF-631 renal; KM20L2 colon; HOP-18 NSCLC; HS 578T breast; MDA-N; MCF7 breast; T-47D breast; NCI/ADR-RES ovarian.
Assay in all cases: NCI tumour cell line growth inhibition, 48 h

Values joined by “and” are separate entries in the source; they are usually repeats but may differ in a detail not shown here. Identical values can stand only once.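 Five concentrations, 48 hours, 96-well plates. GI50 = concentration required for 50% inhibition of growth. TGI denotes the concentration required for complete inhibition of growth.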

For the molecule `N#Cc1c(-c2ccccc2)cc(-c2ccc(N)cc2)[nH]c1=O`, the TGI in the test on RXF-631 renal, in the test with KM20L2 colon and in the test on HOP-18 NSCLC was > 100 µM throughout.

In the case of `C[N+](C)(C)CC1CCC(C[N+](C)(C)C)C1=O` (stereo not given), the TGI in the test with HS 578T breast was 91.5 µM; in the test on MDA-N it was 19.3 µM; in the test on MCF7 breast, 6.05 µM; in the test on RXF-631 renal it was 36.4 µM; in the test with KM20L2 colon it was 9.78 µM; in the test on HOP-18 NSCLC, 1.85 µM. Besides, the TGI with T-47D breast worked out at 8.28 µM.

`O=[P+](O)c1ccccn1`: the TGI in the test on KM20L2 colon is > 100 µM.

For `O=C(Cc1nc2sc3c(c2c(=O)[nH]1)CCCC3)Nc1ccccc1`, the TGI in the test with KM20L2 colon and in the test on HOP-18 NSCLC was > 100 µM each time.

`CC(C)(C)OP(=O)(OC(C)(C)C)C(O)c1ccc(/C=C(\C#N)C(N)=O)cc1` (stereo not given): the TGI in the test with KM20L2 colon was > 100 µM.

Take `O=C1CC(c2c(-c3ccccc3)[nH]c3ccccc23)C(=O)N1c1ccccc1` (stereo not given): the TGI in the test on RXF-631 renal and with KM20L2 colon was > 100 µM in each case.

For the molecule `COC(=O)c1cccc2c3ccccc3c3ccccc3c12`, the TGI with KM20L2 colon and in the test with HOP-18 NSCLC was > 100 µM each time.

In turn, `Cc1cc(N(CCC#N)CCC#N)ccc1N=Nc1cc(Cl)ccc1Cl` yielded a TGI in the test on HOP-18 NSCLC of 22.1 µM.

`CC[C@@]1(OC(=O)C(N)CCCCN)C(=O)OCc2c1cc1n(c2=O)Cc2cc3ccccc3nc2-1` (stereo not given in full): the TGI in the test with HS 578T breast is > 100 µM; in the test with MDA-N, 4.44 µM; in the test with KM20L2 colon it was 12.5 µM; with HOP-18 NSCLC, > 23 µM; in the test on T-47D breast, 0.935 µM.

Take `O=C1/C(=C/c2ccc3c(c2)OCCO3)CCC/C1=C\c1ccc2c(c1)OCCO2`: the TGI was found to be 37.5 µM in the test on KM20L2 colon and 80.2 µM in the test on HOP-18 NSCLC.

Turning to `COC(=O)CCC(=O)N1C/C(=C\c2ccccc2)C(=O)/C(=C/c2ccccc2)C1`, the TGI with KM20L2 colon amounted to 3.82 µM; with HOP-18 NSCLC, 6.85 µM.

Regarding `N#COc1ccc(Oc2ccccc2)cc1`, the TGI with KM20L2 colon and in the test on HOP-18 NSCLC was > 100 µM each time.

As to `C1OC1CN1CCN(CC2CO2)CC1` (stereo not given), the TGI in the test with KM20L2 colon and in the test on HOP-18 NSCLC was > 100 µM throughout.

`COCCOCCOCc1n(Cc2ccc3ccccc3c2)c2ccccc2[n+]1Cc1ccc2ccccc2c1`: the GI50 in the test on HS 578T breast was 1.14 µM; in the test with NCI/ADR-RES ovarian it was 15.1 µM; in the test with MCF7 breast it was 0.325 µM; with T-47D breast it was 0.216 µM. Moreover, the TGI with HS 578T breast stood at 2.96 µM; in the test with NCI/ADR-RES ovarian it was 44.3 µM; in the test with MCF7 breast, 1.45 µM; with T-47D breast, 1.12 µM.

For the molecule `CCOC(=O)C(Cc1c[nH]c2cc(N(CCO)CCO)ccc12)(NC(C)=O)C(=O)OCC`, the GI50 is 246 µM in the test with HS 578T breast; > 1000 µM in the test on NCI/ADR-RES ovarian; 26.6 µM and 135 µM with MCF7 breast; 472 µM with T-47D breast. The TGI is 808 µM with HS 578T breast, > 1000 µM in the test with NCI/ADR-RES ovarian, 815 µM in the test on MCF7 breast and > 1000 µM in the test on T-47D breast.

In the case of `O=C(Nc1cccc(-n2cc(-c3ccncc3)c(-c3ccc(O)c(Cl)c3)n2)c1)c1ccc2c(c1)OCCO2`, the GI50 in the test on HS 578T breast is 6.01 µM; in the test with NCI/ADR-RES ovarian it was 5.7 µM; in the test with MCF7 breast, 4.24 µM; with T-47D breast it was 3.44 µM. Moreover, the TGI with HS 578T breast, with NCI/ADR-RES ovarian, in the test on MCF7 breast and in the test with T-47D breast was > 100 µM in each case.

Turning to `O=C(O)[C@@H]1OCCOCCO[C@@H](C(=O)O)[C@H](C(=O)O)OCCOCCO[C@H]1C(=O)O`, the TGI in the test with KM20L2 colon and in the test on HOP-18 NSCLC was > 100 µM each time.

With `CCOC(=O)Nc1nc2ccccc2[nH]1`, the GI50 is 4.3 µM and 3.48 µM in the test on HS 578T breast; 3.55 µM and 3.47 µM with NCI/ADR-RES ovarian; 3.63 µM and 3.15 µM with MCF7 breast; 5.76 µM and 4.62 µM with T-47D breast. In addition, the TGI with HS 578T breast was > 100 µM; with NCI/ADR-RES ovarian, 35.3 µM and > 25.9 µM; in the test on MCF7 breast it was > 100 µM; in the test with T-47D breast, > 100 µM.

Take `CNCC/C=C1\c2cc3c(cc2-c2c1c1cc(OC)c(OC)cc1c(=O)n2C)OCO3`: the GI50 with HS 578T breast was 8.88 µM; in the test on NCI/ADR-RES ovarian, 3.74 µM; with MCF7 breast, 0.161 µM; in the test on T-47D breast it was 4.19 µM. The TGI is 38.9 µM in the test on HS 578T breast, > 45.2 µM in the test on NCI/ADR-RES ovarian, > 36.9 µM in the test with MCF7 breast and 25.5 µM in the test on T-47D breast.

On to `N#CC1=C(N)NC(=S)NC1c1ccc(-c2ccc(-c3nc4ccccc4o3)cc2)s1` (stereo not given), for which the GI50 with HS 578T breast is 16.1 µM; in the test with NCI/ADR-RES ovarian it was 12.1 µM; in the test on MCF7 breast, 6.7 µM; with T-47D breast, 15.4 µM. The TGI in the test on HS 578T breast was 45.1 µM; in the test with NCI/ADR-RES ovarian it was 30.1 µM; in the test on MCF7 breast, 19.2 µM; with T-47D breast, > 50 µM.

`N#Cc1ccc(/C=C(/C(=O)c2ccccc2)c2ccccc2)cc1`: the TGI is 29.8 µM with RXF-631 renal, 31.2 µM with KM20L2 colon and > 55.1 µM with HOP-18 NSCLC.

Source of the values: PubChem BioAssay (NCI).
